These are literature values, as cited in the CATMoS acute toxicity set (Mansouri et al. 2021).

Values joined by “and” are separate entries in the source; they are usually repeats but may differ in a detail not shown here. Identical values can stand only once.

A word on the LD50: it is the dose at which mortality reaches 50%.

A short description of the data set: rat acute oral toxicity. The following applies: in vivo.
For `CC(Oc1ccc2ccccc2c1)C(O)=Nc1ccccc1` (stereo unspecified), the median lethal dose (LD50) is 15000 mg/kg.
Take `N/C(CNc1ccc(Cl)cc1)=N/O`: the LD50 was 450 mg/kg.
`Cc1cc(C)n(SC(Cl)(Cl)Cl)n1`: the LD50 was 570 mg/kg.
`CC(N)CSc1ccc(Cl)cc1` (stereo unspecified): the 50% lethal dose (LD50) is 600 mg/kg.
With `FC(F)(F)c1nc2c(Cl)cc(I)cc2[nH]1`, the LD50 was 1.44 mg/kg.
In the case of `CCOC(=O)C(Br)CBr` (stereo unspecified), the LD50 was 240 mg/kg.
Turning to `CCCC(=O)NP(=O)(OC)SC` (stereo unspecified), the LD50 was 125 mg/kg.
Regarding `CN(N=O)C1CCS(=O)(=O)C1` (stereo unspecified), the LD50 was 750 mg/kg.
For the molecule `CC1COCC(C)N1C(=O)C[n+]1ccc(-c2cc[n+](CC(=O)N3C(C)COCC3C)cc2)cc1` (stereo unspecified), the LD50 is 345 mg/kg.
`O=C(c1cc(O)c(O)c(O)c1)c1ccc(O)c(O)c1O`: the LD50 is 1420 mg/kg.
For `N#CCCC#N`, the LD50 is 450 mg/kg.
Regarding `CC/C(=C(\c1ccccc1)c1ccc(OCCN(C)C)cc1)c1ccccc1`, the median lethal dose (LD50) is 4100 mg/kg.
For `CO[Si](CCl)(OC)OC`, the LD50 was 500 mg/kg.
For the molecule `COc1cccc(C=Nc2c(C)n(C)n(-c3ccccc3)c2=O)c1`, the LD50 was 5600 mg/kg.
As to `CC(C)=CC(=O)Nc1ccc(O)cc1`, the LD50 is 1950 mg/kg.
Regarding `CNC(=O)O[C@@H]1C[C@H](C)CC[C@H]1C(C)C`, the LD50 is 250 mg/kg.
With `CC1C(C)(C)C2=C(c3ncncc3CC2)C1(C)C` (stereo unspecified), the LD50 is 500 mg/kg.
Consider `OC(CCN1CCCCC1)(c1ccccc1)C1CCCCC1` (stereo unspecified), for which the median lethal dose (LD50) was 1630 mg/kg.
For `CCCCC(O)(Cn1cncn1)c1ccc(Cl)cc1Cl` (stereo unspecified), the LD50 is 2190 mg/kg.
As to `CC(C)N(CCON=C1CCCCCC1=Cc1ccccc1)C(C)C`, the LD50 was 537 mg/kg.
In the case of `CCCC=C(C=NCCCCCCCCCCCCCCCCCCCCC)CC`, the LD50 is 5320 mg/kg.
`CCCOc1ccc(Cl)cc1C(CN(C)C)C(C)CC` (stereo unspecified): the LD50 is 561 mg/kg.
Take `CC(O)(c1ccc(Cl)cc1)c1ccc(Cl)cc1`: the LD50 is 500 mg/kg.
Regarding `CCCn1c(=O)[nH]c(=O)c2[nH]cnc21`, the LD50 is 481 mg/kg.
As to `COP(=O)(OC)O/C(=C\Cl)c1ccc(Cl)cc1Cl`, the 50% lethal dose (LD50) is 97.5 mg/kg.
`CCCCCCCC/C=C\CCCCCCCC(=O)NCCS(=O)(=O)O`: the LD50 was 4000 mg/kg.
Take `CCCCOC(=O)/C=C\C(=O)OCCCC`: the LD50 was 3700 mg/kg.
Consider `CC(O)C1Sc2ccccc2N(CCCN(C)C)C1c1ccccc1` (stereo unspecified), for which the LD50 is 800 mg/kg.
Take `CNC(=O)ON=C1SCCOC1C` (stereo unspecified): the median lethal dose (LD50) is 6 mg/kg.
In the case of `COc1cc(NC(=O)OCCCN2CCN(c3ccccc3)CC2)cc(OC)c1OC`, the 50% lethal dose (LD50) is 900 mg/kg.
In the case of `CNC(=O)Oc1ccccc1C1SCCS1`, the LD50 is 90 mg/kg.
As to `CC(C(=O)O)c1ccc(-n2cc3ccccc3n2)cc1` (stereo unspecified), the LD50 was 1550 mg/kg.
For `BrC/C=C/CBr`, the 50% lethal dose (LD50) was 62 mg/kg.
As to `O=[N+]([O-])c1cc(Br)cc2[nH]c(C(F)(F)F)nc12`, the LD50 is 1.23 mg/kg.
Take `Cc1cc(O)ccc1S(C)=O` (stereo unspecified): the median lethal dose (LD50) was 3500 mg/kg.
On to `CCCCCCCCCCCCOCCOCCOCCOS(=O)(=O)O`, for which the 50% lethal dose (LD50) was 1820 mg/kg.
On to `CCc1c(Cl)ccc(O)c1Cl`, for which the LD50 was 2260 mg/kg.
As to `CCNc1ccc(C(=C2C=CC(=[N+](C)C)C=C2)c2ccc(N(C)C)cc2)c2ccccc12`, the LD50 was 960 mg/kg.
As for `CC(=O)N(/C(=N/c1cccnc1)NC#N)C(C)(C)C`, the LD50 is 615 mg/kg.
Turning to `Cc1c(Cl)ccc2[nH]c(C(F)(F)F)nc12`, the LD50 was 22 mg/kg.
Turning to `Cc1cc(C)c(C)c(C)c1`, the LD50 was 5160 mg/kg.
Turning to `CCCCCCCCCCCCOCC(O)COS(=O)(O)=S` (stereo unspecified), the LD50 is 1820 mg/kg.
For the molecule `S=C(S)NCCNC(=S)S`, the LD50 is 1850 mg/kg and 2850 mg/kg.
For `CCCC(=O)N(C)C(=O)Oc1cc(C)cc(C(C)C)c1`, the LD50 is 1220 mg/kg.
Regarding `CN(C)c1ccncc1`, the LD50 was 250 mg/kg.
`COC(=O)C1CCCCC1`: the LD50 was 3880 mg/kg.
As for `NCCC[C@H](N)C(=O)O`, the LD50 is 10000 mg/kg.
In the case of `CC(=O)c1c(=O)cc(C)oc1=O`, the LD50 was 706 mg/kg.
For `Cc1ccc(S(=O)(=O)NCl)cc1`, the LD50 was 935 mg/kg.
Turning to `Cc1noc(NS(=O)(=O)c2ccc(N)cc2)c1C`, the LD50 is 10000 mg/kg.
As to `CCCOC(=O)C1c2cc3c(cc2CC(C)C1C(=O)OCCC)OCO3` (stereo unspecified), the LD50 is 1500 mg/kg.
As to `CCN(CCCCOC(=O)c1ccc(OC)c(OC)c1)C1CCc2cc(OC)c(OC)cc2C1` (stereo unspecified), the LD50 is 1540 mg/kg.
In the case of `CC(=O)c1ccccc1[N+](=O)[O-]`, the LD50 is 1600 mg/kg.
With `N#CCC[P+](CCC#N)(CCC#N)CC[P+](CCC#N)(CCC#N)CCC#N`, the LD50 was 10000 mg/kg.
On to `CC(CN1c2ccccc2Sc2cccnc21)N(C)C` (stereo unspecified), for which the LD50 is 1220 mg/kg.
Consider `CN(C)C(=S)SSC(=S)NCCNC(=S)SSC(=S)N(C)C`, for which the LD50 was 3000 mg/kg.
For the molecule `CCCCCCCCCCCCCCSC#N`, the LD50 is 15000 mg/kg.
Take `O=C1c2ccccc2-c2ccc3c4c(ccc1c24)-c1c(Br)ccc(Br)c1C3=O`: the LD50 is 3570 mg/kg.
As for `CC(=O)CNC(C)(C)Cc1ccc(Cl)cc1`, the LD50 was 250 mg/kg.
For `C=CC(O)CCCCC` (stereo unspecified), the LD50 was 340 mg/kg.
As for `C=CC=C`, the LD50 is 5480 mg/kg.
